Laboratory results: ChEMBL document CHEMBL4219234, “4-Substituted carbamazepine derivatives: Conformational analysis and sodium channel-blocking properties” (Bioorg Med Chem, 2018)
Calls of active or inactive are those of the source. No cut-off for these calls is given here.

Tests used:
[1] = biological target: Sodium channel protein type 2 subunit alpha (Homo sapiens) (UniProt Q99250); assay: Inhibition of human Nav1.2 expressed in CHOK1 cells assessed as reduction in peak inward current at 30th pulse using holding potential of -50 mV by patch clamp assay; type: cell-based
Sodium channel protein type 2 subunit alpha (Homo sapiens), sequence (Q99250 whole entry, looked up): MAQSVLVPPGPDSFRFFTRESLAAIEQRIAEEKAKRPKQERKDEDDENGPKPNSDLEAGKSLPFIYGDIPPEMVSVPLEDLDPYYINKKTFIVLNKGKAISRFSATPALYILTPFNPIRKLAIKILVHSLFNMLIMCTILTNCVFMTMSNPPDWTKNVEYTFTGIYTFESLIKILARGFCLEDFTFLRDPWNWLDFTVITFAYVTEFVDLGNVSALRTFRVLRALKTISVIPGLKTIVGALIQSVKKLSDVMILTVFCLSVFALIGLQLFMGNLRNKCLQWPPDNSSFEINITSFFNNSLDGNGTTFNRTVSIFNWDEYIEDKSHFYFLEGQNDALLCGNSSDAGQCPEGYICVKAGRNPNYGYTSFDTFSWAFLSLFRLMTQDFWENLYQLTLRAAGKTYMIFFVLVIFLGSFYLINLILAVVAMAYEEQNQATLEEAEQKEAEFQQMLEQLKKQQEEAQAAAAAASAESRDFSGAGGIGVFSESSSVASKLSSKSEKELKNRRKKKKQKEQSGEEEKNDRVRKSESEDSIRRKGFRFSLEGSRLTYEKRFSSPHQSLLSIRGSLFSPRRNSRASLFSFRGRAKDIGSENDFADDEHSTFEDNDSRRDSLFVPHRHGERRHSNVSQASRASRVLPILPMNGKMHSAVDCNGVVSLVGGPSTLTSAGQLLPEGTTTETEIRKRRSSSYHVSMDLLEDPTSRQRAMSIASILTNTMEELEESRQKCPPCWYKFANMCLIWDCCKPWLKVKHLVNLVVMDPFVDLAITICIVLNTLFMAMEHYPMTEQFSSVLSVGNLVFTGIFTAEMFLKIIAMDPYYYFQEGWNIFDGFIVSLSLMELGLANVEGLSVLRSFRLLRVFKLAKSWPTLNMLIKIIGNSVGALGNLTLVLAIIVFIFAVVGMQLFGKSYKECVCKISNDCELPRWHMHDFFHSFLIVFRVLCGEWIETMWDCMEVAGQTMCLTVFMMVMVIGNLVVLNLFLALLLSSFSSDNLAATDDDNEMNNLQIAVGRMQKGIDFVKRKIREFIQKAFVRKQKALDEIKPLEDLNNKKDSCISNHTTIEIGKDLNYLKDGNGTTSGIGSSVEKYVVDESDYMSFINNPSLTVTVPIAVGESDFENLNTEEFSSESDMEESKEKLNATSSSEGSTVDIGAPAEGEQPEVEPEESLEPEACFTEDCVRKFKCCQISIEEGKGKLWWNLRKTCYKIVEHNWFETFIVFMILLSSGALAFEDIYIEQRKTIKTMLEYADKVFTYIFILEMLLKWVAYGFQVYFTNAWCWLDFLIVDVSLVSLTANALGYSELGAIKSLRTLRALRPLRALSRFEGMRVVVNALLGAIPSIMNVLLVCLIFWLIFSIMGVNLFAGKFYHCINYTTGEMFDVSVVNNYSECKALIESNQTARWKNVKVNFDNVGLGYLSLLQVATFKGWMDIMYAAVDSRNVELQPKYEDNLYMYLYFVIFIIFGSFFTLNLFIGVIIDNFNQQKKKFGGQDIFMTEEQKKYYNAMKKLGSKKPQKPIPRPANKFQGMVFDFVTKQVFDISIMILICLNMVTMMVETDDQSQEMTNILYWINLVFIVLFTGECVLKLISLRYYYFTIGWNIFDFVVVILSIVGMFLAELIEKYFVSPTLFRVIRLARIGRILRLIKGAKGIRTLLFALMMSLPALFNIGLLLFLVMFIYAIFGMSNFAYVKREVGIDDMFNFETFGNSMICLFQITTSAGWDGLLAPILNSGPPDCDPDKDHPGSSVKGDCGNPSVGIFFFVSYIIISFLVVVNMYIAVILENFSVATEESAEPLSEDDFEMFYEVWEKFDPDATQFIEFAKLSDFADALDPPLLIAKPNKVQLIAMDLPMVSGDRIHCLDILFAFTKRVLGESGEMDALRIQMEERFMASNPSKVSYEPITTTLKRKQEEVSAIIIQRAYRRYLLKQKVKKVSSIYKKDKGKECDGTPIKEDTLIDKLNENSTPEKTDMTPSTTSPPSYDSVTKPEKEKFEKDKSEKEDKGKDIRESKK

[2] = Solubility of the compound in DMSO at > 14.3 uM; type: physicochemical
[3] = Solubility of the compound in DMSO at > 30 uM; type: physicochemical

| inhibition [1] | solubility [2] | solubility [3] | Compound |
| --- | --- | --- | --- |
| Active | – | – | NC(=O)N1c2ccccc2C=Cc2ccccc21 |
| Active | Insoluble | – | NC(=O)N1c2ccccc2C=Cc2cccc(Cl)c21 |
| Active | – | Insoluble | Cc1cccc2c1N(C(N)=O)c1ccccc1C=C2 |
